# In ChEMBL document CHEMBL3044568, “Synthesis, analgesic, anti-inflammatory, and in vitro antimicrobial activities of some novel quinazolin-4(3H)-one derivatives” (Med Chem Res, 2013):
# Assays:
# [1] = test system: Aspergillus niger; experiment: Antifungal activity against Aspergillus niger ATCC 9029 assessed as growth inhibition after 48 hr by agar streak dilution method; format: functional; conditions: ATCC 9029, 48 h
# [2] = test system: Mus musculus; experiment: Analgesic activity in Mus musculus […] albino (mouse) at 10 mg/kg, po measured at 2 hr by tail flick test (reference value: 6 +/- 0.84%)
# [3] = test system: Pseudomonas aeruginosa; experiment: Antibacterial activity against Pseudomonas aeruginosa […] assessed as growth inhibition after 24 hr by agar streak dilution method; format: functional
# [4] = test system: Mus musculus; experiment: Analgesic activity in Mus musculus […] albino (mouse) at 10 mg/kg, po measured at 30 min by tail flick test (reference value: 4 +/- 0.72%)
# [5] = test system: Mus musculus; experiment: Analgesic activity in Mus musculus […] albino (mouse) at 20 mg/kg, po measured at 3 hr by tail flick test (reference value: 3 +/- 0.41%)
# [6] = test system: Aspergillus fumigatus; experiment: Antifungal activity against Aspergillus fumigatus ATCC 46645 assessed as growth inhibition after 48 hr by agar streak dilution method; format: functional; conditions: ATCC 46645, 48 h
# [7] = test system: Rattus norvegicus; experiment: Anti-inflammatory activity in Rattus norvegicus Wistar (rat) assessed as protection against carrageenan-induced paw edema at 20 mg/kg, po measured at 2 hr by plethysmographic analysis (reference value: 5 +/- 0.41%); format: functional
# [8] = test system: Rattus norvegicus; experiment: Ulcerogenecity in Rattus norvegicus Wistar albino (rat) stomach assessed as ulcer index administered 20 mg/kg, ip qd for 3 days measured on day 4 relative to aspirin; format: ADME, organism-based; design: dose 20 mg/kg, route intraperitoneal; conditions: in vivo, 72 h
# [9] = test system: Rattus norvegicus; experiment: Anti-inflammatory activity in Rattus norvegicus Wistar (rat) assessed as protection against carrageenan-induced paw edema at 10 mg/kg, po measured at 1 hr by plethysmographic analysis (reference value: 6 +/- 0.63%); format: functional
# [10] = test system: Mus musculus; experiment: Analgesic activity in Mus musculus […] albino (mouse) at 20 mg/kg, po measured at 2 hr by tail flick test (reference value: 6 +/- 0.84%)
# [11] = test system: Mus musculus; experiment: Analgesic activity in Mus musculus […] albino (mouse) at 10 mg/kg, po measured at 3 hr by tail flick test (reference value: 3 +/- 0.41%)
# [12] = test system: Staphylococcus aureus; experiment: Antibacterial activity against Staphylococcus aureus ATCC 9144 assessed as growth inhibition after 24 hr by agar streak dilution method; format: functional; conditions: ATCC 9144, 24 h
# [13] = test system: Mus musculus; experiment: Analgesic activity in Mus musculus […] albino (mouse) at 20 mg/kg, po measured at 1 hr by tail flick test (reference value: 5 +/- 0.49%)
# [14] = test system: Rattus norvegicus; experiment: Anti-inflammatory activity in Rattus norvegicus Wistar (rat) assessed as protection against carrageenan-induced paw edema at 20 mg/kg, po measured at 1 hr by plethysmographic analysis (reference value: 6 +/- 0.63%); format: functional
# [15] = test system: Rattus norvegicus; experiment: Anti-inflammatory activity in Rattus norvegicus Wistar (rat) assessed as protection against carrageenan-induced paw edema at 20 mg/kg, po measured at 3 hr by plethysmographic analysis (reference value: 4 +/- 0.75%); format: functional
# [16] = test system: Rattus norvegicus; experiment: Anti-inflammatory activity in Rattus norvegicus Wistar (rat) assessed as protection against carrageenan-induced paw edema at 20 mg/kg, po measured at 30 min by plethysmographic analysis (reference value: 4 +/- 0.28%); format: functional
# [17] = test system: Mus musculus; experiment: Analgesic activity in Mus musculus […] albino (mouse) at 10 mg/kg, po measured at 1 hr by tail flick test (reference value: 5 +/- 0.49%)
# [18] = test system: Rattus norvegicus; experiment: Anti-inflammatory activity in Rattus norvegicus Wistar (rat) assessed as protection against carrageenan-induced paw edema at 10 mg/kg, po measured at 2 hr by plethysmographic analysis (reference value: 5 +/- 0.41%); format: functional
# [19] = test system: Escherichia coli; experiment: Antibacterial activity against Escherichia coli ATCC 25922 assessed as growth inhibition after 24 hr by agar streak dilution method; format: functional; conditions: ATCC 25922, 24 h
# [20] = test system: Bacillus cereus; experiment: Antibacterial activity against Bacillus cereus ATCC 11778 assessed as growth inhibition after 24 hr by agar streak dilution method; format: functional; conditions: ATCC 11778, 24 h
# [21] = test system: Mus musculus; experiment: Analgesic activity in Mus musculus […] albino (mouse) at 20 mg/kg, po measured at 30 min by tail flick test (reference value: 4 +/- 0.72%)
# [22] = test system: Micrococcus luteus; experiment: Antibacterial activity against Micrococcus luteus ATCC 4698 assessed as growth inhibition after 24 hr by agar streak dilution method; format: functional; conditions: ATCC 4698, 24 h
# [23] = test system: Rattus norvegicus; experiment: Anti-inflammatory activity in Rattus norvegicus Wistar (rat) assessed as protection against carrageenan-induced paw edema at 10 mg/kg, po measured at 30 min by plethysmographic analysis (reference value: 4 +/- 0.28%); format: functional
# [24] = test system: Rattus norvegicus; experiment: Ulcerogenecity in Rattus norvegicus Wistar albino (rat) stomach assessed as ulcer index administered 20 mg/kg, ip qd for 3 days measured on day 4 relative to diclofenac; format: ADME, organism-based; design: dose 20 mg/kg, route intraperitoneal; conditions: in vivo, 72 h
# [25] = test system: Rattus norvegicus; experiment: Ulcerogenecity in Rattus norvegicus Wistar albino (rat) stomach assessed as ulcer index administered 20 mg/kg, ip qd for 3 days measured on day 4 (reference value: 0.13 +/- 0.05 no unit); format: ADME, organism-based; design: dose 20 mg/kg, route intraperitoneal; conditions: in vivo, 72 h
# [26] = test system: Staphylococcus epidermidis; experiment: Antibacterial activity against Staphylococcus epidermidis ATCC 155 assessed as growth inhibition after 24 hr by agar streak dilution method; format: functional; conditions: ATCC 155, 24 h
# [27] = test system: Klebsiella pneumoniae; experiment: Antibacterial activity against Klebsiella pneumoniae ATCC 11298 assessed as growth inhibition after 24 hr by agar streak dilution method; format: functional; conditions: ATCC 11298, 24 h
# [28] = test system: Rattus norvegicus; experiment: Anti-inflammatory activity in Rattus norvegicus Wistar (rat) assessed as protection against carrageenan-induced paw edema at 10 mg/kg, po measured at 3 hr by plethysmographic analysis (reference value: 4 +/- 0.75%); format: functional
# [29] = test system: Rattus norvegicus; experiment: Ulcerogenecity in Rattus norvegicus Wistar albino (rat) stomach assessed as ulcer index administered 200 mg/kg, ip qd for 3 days measured on day 4 (reference value: 0.13 +/- 0.05 no unit); format: ADME, organism-based; design: dose 200 mg/kg, route intraperitoneal; conditions: in vivo, 72 h
SMILES,MIC [1],Activity [2],MIC [3],Activity [4],Activity [5],MIC [6],Activity [7],UI [8],Activity [9],Activity [10],Activity [11],MIC [12],Activity [13],Activity [14],Activity [15],Activity [16],Activity [17],Activity [18],MIC [19],MIC [20],also measured
Cc1nc2ccccc2c(=O)n1-c1ccc(NC(=O)CN/N=C/c2ccccc2)cc1,31.2 µg/mL,41%,31.2 µg/mL,30%,32%,31.2 µg/mL,51%,31%,29%,57%,29%,31.2 µg/mL,50%,46%,32%,35%,35%,34%,62.5 µg/mL,31.2 µg/mL,Activity [21]: 42%; MIC [22]: 62.5 µg/mL; Activity [23]: 24%; UI [24]: 34%; UI [25]: 0.7 no unit; MIC [26]: 31.2 µg/mL; MIC [27]: 15.6 µg/mL; Activity [28]: 28%
Cc1nc2ccccc2c(=O)n1-c1ccc(NC(=O)CN/N=C/c2ccc(F)cc2)cc1,31.2 µg/mL,42%,7.81 µg/mL,32%,35%,15.6 µg/mL,52%,31%,33%,58%,31%,31.2 µg/mL,54%,49%,36%,37%,38%,36%,31.2 µg/mL,7.81 µg/mL,Activity [21]: 44%; MIC [22]: 15.6 µg/mL; Activity [23]: 26%; UI [24]: 34%; UI [25]: 0.64 no unit; MIC [26]: 7.81 µg/mL; MIC [27]: 3.9 µg/mL; Activity [28]: 29%
Cc1ccc(/C=N/NCC(=O)Nc2ccc(-n3c(C)nc4ccccc4c3=O)cc2)cc1,62.5 µg/mL,47%,62.5 µg/mL,37%,41%,125 µg/mL,60%,31%,35%,63%,37%,125 µg/mL,59%,54%,39%,41%,42%,41%,62.5 µg/mL,31.2 µg/mL,Activity [21]: 48%; MIC [22]: 125 µg/mL; Activity [23]: 30%; UI [24]: 34%; UI [25]: 0.61 no unit; MIC [26]: 62.5 µg/mL; MIC [27]: 31.2 µg/mL; Activity [28]: 31%
Cc1nc2ccccc2c(=O)n1-c1ccc(NC(=O)CN/N=C/c2ccc(Cl)cc2)cc1,15.6 µg/mL,48%,15.6 µg/mL,36%,40%,7.81 µg/mL,59%,31%,37%,64%,35%,31.2 µg/mL,58%,52%,42%,43%,45%,43%,31.2 µg/mL,15.6 µg/mL,Activity [21]: 50%; MIC [22]: 7.81 µg/mL; Activity [23]: 31%; UI [24]: 34%; UI [25]: 0.59 no unit; MIC [26]: 15.6 µg/mL; MIC [27]: 7.81 µg/mL; Activity [28]: 34%
Cc1nc2ccccc2c(=O)n1-c1ccc(NC(=O)CN/N=C/c2ccc(C(F)(F)F)cc2)cc1,7.81 µg/mL,53%,7.81 µg/mL,40%,45%,15.6 µg/mL,65%,32%,40%,70%,39%,15.6 µg/mL,63%,57%,47%,46%,48%,46%,31.2 µg/mL,3.9 µg/mL,Activity [21]: 53%; MIC [22]: 7.81 µg/mL; Activity [23]: 35%; UI [24]: 32%; UI [25]: 0.55 no unit; MIC [26]: 15.6 µg/mL; MIC [27]: 7.81 µg/mL; Activity [28]: 39%
COc1ccc(/C=N/NCC(=O)Nc2ccc(-n3c(C)nc4ccccc4c3=O)cc2)cc1,62.5 µg/mL,35%,62.5 µg/mL,24%,28%,62.5 µg/mL,42%,51%,25%,48%,23%,125 µg/mL,40%,37%,30%,31%,32%,29%,125 µg/mL,62.5 µg/mL,Activity [21]: 35%; MIC [22]: 62.5 µg/mL; Activity [23]: 22%; UI [24]: 51%; UI [25]: 0.86 no unit; MIC [26]: 62.5 µg/mL; MIC [27]: 31.2 µg/mL; Activity [28]: 19%
Cc1nc2ccccc2c(=O)n1-c1ccc(NC(=O)CN/N=C/c2ccc([N+](=O)[O-])cc2)cc1,15.6 µg/mL,36%,15.6 µg/mL,26%,27%,15.6 µg/mL,40%,31%,26%,49%,25%,31.2 µg/mL,42%,36%,31%,29%,31%,31%,31.2 µg/mL,7.81 µg/mL,Activity [21]: 38%; MIC [22]: 15.6 µg/mL; Activity [23]: 20%; UI [24]: 34%; UI [25]: 0.8 no unit; MIC [26]: 7.81 µg/mL; MIC [27]: 7.81 µg/mL; Activity [28]: 20%
CC(=O)Oc1ccccc1C(=O)O [ASPIRIN],–,–,–,–,–,–,–,–,–,–,–,–,–,–,–,–,–,–,–,–,UI [29]: 1.79%
